Test results as given in patent EP0007672A1, “Isocyanoalkenes, process and useful intermediates for their preparation, pharmaceutical and fungicidal preparations containing those isocyanoalkenes and the use of the fungicidal preparations in agriculture” (GIST-BROCADES N.V., priority 1978, dated 1980).
≈ marks a conversion by molar mass, not a printed value. Where two headings read alike, the source gives them in different places.

Legend:
Experiment in all cases: MIC (Minimum Inhibitory Concentration)
Type in all cases: cell-based
Bacillus subtilis = conditions: ATCC6633; Bacillus subtilis ATCC 6633
Candida albicans = system: Candida albicans
Diplococcus pneumoniae = conditions: Streptococcus pneumoniae; Diplococcus pneumoniae A 2783
Pasteurella multocida = Pasteurella multocida A 723; read-out: MIC values
Proteus morganii = conditions: Morganella morganii; Proteus morganii 2241
Staphylococcus aureus = system: Staphylococcus aureus
[1] = system: Streptococcus haemolyticus; conditions: Streptococcus haemolyticus A 1088; read-out: MIC values
Trichophyton equinum = system: Trichophyton equinum
[2] = system: Trichophyton mentagrophytus
Trichophyton rubrum = system: Trichophyton rubrum
[3] = system: Trichophyton schoenleinii; conditions: Trichophyton schoenleinii 435-63; read-out: MIC values
[4] = system: Trichophyton soudanese joyeux; conditions: Trichophyton soudanese joyeux 440-63; read-out: MIC values
Trichophyton tonsurans = Trichophyton tonsurans 561-50; read-out: MIC values
Trichophyton verrucosum = system: Trichophyton verrucosum
Trichophyton violoceum = Trichophyton violoceum 442-62; read-out: MIC values
Aspergillus flavus = Aspergillus flavus A 2385
Aspergillus parasiticus = system: Aspergillus parasiticus
Aspergillus versiodor = Aspergillus versiodor Nr. 7
Fusarium (bulb) = Fusarium (bulb) A 3252
Fusarium (tulip) = Fusarium (tulip) A 3253
Fusarium solani = Fusarium solani A 3245; read-out: MIC values
Fusarium = Fusarium A 3241
Penicillium islandicum = conditions: Talaromyces islandicus; Penicillium islandicum D 189
Penicillium italicum = Penicillium italicum 278-65
Penicillium patalum = Penicillium patalum A 2389
Penicillium rubrum = conditions: Talaromyces ruber; Penicillium rubrum A 2395
Penicillium veridicatum = Penicillium veridicatum A 2370
Rhizoctonia solani = Rhizoctonia solani 200-25; read-out: MIC values
Trichophyton quickeaneum = Trichophyton quickeaneum A 2040; read-out: MIC values
[5] = Candida albicans A 7, read-out: MIC values
[6] = Candida albicans A 3140, read-out: MIC values
[7] = Candida albicans A 3141, read-out: MIC values
[8] = Candida albicans A 3144, read-out: MIC values
[9] = Candida albicans A 3145, read-out: MIC values
[10] = Candida albicans A 3165, read-out: MIC values
[11] = Candida albicans A 3166, read-out: MIC values
[12] = Candida albicans A 3167, read-out: MIC values
[13] = Candida albicans A 3168, read-out: MIC values
[14] = Candida albicans A 3169, read-out: MIC values
[15] = Candida albicans A 3171, read-out: MIC values
[16] = Candida albicans A 3191, read-out: MIC values
[17] = Candida albicans A 3194, read-out: MIC values
[18] = Candida albicans A 3196, read-out: MIC values
[19] = Trichophyton equinum 856-71, read-out: MIC values
[20] = Trichophyton mentagrophytus 367-68, read-out: MIC values
[21] = Trichophyton mentagrophytus 421-67, read-out: MIC values
[22] = Trichophyton mentagrophytus A 3252, read-out: MIC values
[23] = Trichophyton mentagrophytus R 177, read-out: MIC values
[24] = Trichophyton mentagrophytus R 178, read-out: MIC values
[25] = Trichophyton mentagrophytus RRL 305, read-out: MIC values
[26] = Trichophyton rubrum 218-65, read-out: MIC values
[27] = Trichophyton rubrum 494-62, read-out: MIC values
[28] = Trichophyton rubrum A 810, read-out: MIC values
[29] = Trichophyton verrucosum 134-66, read-out: MIC values

SMILES: [C-]#[N+]C(=Cc1ccc(OC)cc1)S(=O)(=O)c1ccc(C)cc1 [Example 23, 1-isocyano-2-(4-methoxyphenyl)-1-(4-toluenesulphonyl)-ethene]
- MIC (Bacillus subtilis): 3 µg/mL (≈ 9.57 µM)
- MIC (Candida albicans; [5]): 1.5 µg/mL (≈ 4.79 µM)
- MIC (Candida albicans; [6]): 1.5 µg/mL (≈ 4.79 µM)
- MIC (Candida albicans; [7]): 1.5 µg/mL (≈ 4.79 µM)
- MIC (Candida albicans; Candida albicans A 3142, read-out: MIC values): 1.5 µg/mL (≈ 4.79 µM)
- MIC (Candida albicans; Candida albicans A 3143, read-out: MIC values): 1.5 µg/mL (≈ 4.79 µM)
- MIC (Candida albicans; [8]): 1.5 µg/mL (≈ 4.79 µM)
- MIC (Candida albicans; [9]): 1.5 µg/mL (≈ 4.79 µM)
- MIC (Candida albicans; [10]): 1.5 µg/mL (≈ 4.79 µM)
- MIC (Candida albicans; [11]): 1.5 µg/mL (≈ 4.79 µM)
- MIC (Candida albicans; [12]): 1.5 µg/mL (≈ 4.79 µM)
- MIC (Candida albicans; [13]): 1.5 µg/mL (≈ 4.79 µM)
- MIC (Candida albicans; [14]): 1.5 µg/mL (≈ 4.79 µM)
- MIC (Candida albicans; [15]): 1.5 µg/mL (≈ 4.79 µM)
- MIC (Candida albicans; Candida albicans A 3184, read-out: MIC values): 1.5 µg/mL (≈ 4.79 µM)
- MIC (Candida albicans; Candida albicans A 3190, read-out: MIC values): 1.5 µg/mL (≈ 4.79 µM)
- MIC (Candida albicans; [16]): 1.5 µg/mL (≈ 4.79 µM)
- MIC (Candida albicans; Candida albicans A 3192, read-out: MIC values): 1.5 µg/mL (≈ 4.79 µM)
- MIC (Candida albicans; [17]): 1.5 µg/mL (≈ 4.79 µM)
- MIC (Candida albicans; [18]): 1.5 µg/mL (≈ 4.79 µM)
- MIC (Diplococcus pneumoniae): 6 µg/mL (≈ 19.1 µM)
- MIC (Pasteurella multocida): 3 µg/mL (≈ 9.57 µM)
- MIC (Proteus morganii): 6 µg/mL (≈ 19.1 µM)
- MIC (Staphylococcus aureus; Staphylococcus aureus A 321): 3 µg/mL (≈ 9.57 µM)
- MIC (Staphylococcus aureus; Staphylococcus aureus A 355): 3 µg/mL (≈ 9.57 µM)
- MIC (Staphylococcus aureus; Staphylococcus aureus A 2000): 1.5 µg/mL (≈ 4.79 µM)
- MIC [1]: < 0.05 µg/mL
- MIC (Trichophyton equinum; Trichophyton equinum 441-51, read-out: MIC values): 1.5 µg/mL (≈ 4.79 µM)
- MIC (Trichophyton equinum; [19]): 100 µg/mL (≈ 319 µM)
- MIC [2, 20]: 25 µg/mL (≈ 79.8 µM)
- MIC [2, 21]: 100 µg/mL (≈ 319 µM)
- MIC [2, 22]: 100 µg/mL (≈ 319 µM)
- MIC [2, 23]: 12.5 µg/mL (≈ 39.9 µM)
- MIC [2, 24]: > 100 µg/mL
- MIC [2, 25]: 25 µg/mL (≈ 79.8 µM)
- MIC (Trichophyton rubrum; [26]): 25 µg/mL (≈ 79.8 µM)
- MIC (Trichophyton rubrum; [27]): 100 µg/mL (≈ 319 µM)
- MIC (Trichophyton rubrum; [28]): 25 µg/mL (≈ 79.8 µM)
- MIC [3]: 3 µg/mL (≈ 9.57 µM)
- MIC [4]: 6 µg/mL (≈ 19.1 µM)
- MIC (Trichophyton tonsurans): 0.8 µg/mL (≈ 2.55 µM)
- MIC (Trichophyton verrucosum; [29]): 1.5 µg/mL (≈ 4.79 µM)
- MIC (Trichophyton violoceum): 3 µg/mL (≈ 9.57 µM)

SMILES: C[C@@H]1C/C=C/C=C/C=C/C=C/[C@H](O[C@@H]2O[C@H](C)[C@@H](O)[C@H](N)[C@@H]2O)C[C@@H]2O[C@](O)(C[C@@H](O)C[C@H]3O[C@@H]3/C=C/C(=O)O1)C[C@H](O)[C@H]2C(=O)O [natamycin, reference compound]
- MIC (Aspergillus flavus): 50 µg/mL (≈ 75.1 µM)
- MIC (Aspergillus parasiticus; Aspergillus parasiticus A 2396): 2.5 µg/mL (≈ 3.76 µM)
- MIC values (Aspergillus parasiticus; Aspergillus parasiticus A 2397): 2.5 µg/mL (≈ 3.76 µM)
- MIC (Aspergillus versiodor): 6 µg/mL (≈ 9.01 µM)
- MIC (Candida albicans; [5]): 12.5 µg/mL (≈ 18.8 µM)
- MIC (Candida albicans; [6]): 25 µg/mL (≈ 37.6 µM)
- MIC (Candida albicans; [7]): 3 µg/mL (≈ 4.51 µM)
- MIC (Candida albicans; [8]): 3 µg/mL (≈ 4.51 µM)
- MIC (Candida albicans; [9]): 3 µg/mL (≈ 4.51 µM)
- MIC (Candida albicans; [10]): 25 µg/mL (≈ 37.6 µM)
- MIC (Candida albicans; [11]): 6 µg/mL (≈ 9.01 µM)
- MIC (Candida albicans; [12]): 1.5 µg/mL (≈ 2.25 µM)
- MIC (Candida albicans; [13]): 12.5 µg/mL (≈ 18.8 µM)
- MIC (Candida albicans; [14]): 1.5 µg/mL (≈ 2.25 µM)
- MIC (Candida albicans; [15]): 6 µg/mL (≈ 9.01 µM)
- MIC (Candida albicans; [16]): 6 µg/mL (≈ 9.01 µM)
- MIC (Candida albicans; [17]): 3 µg/mL (≈ 4.51 µM)
- MIC (Candida albicans; [18]): 6 µg/mL (≈ 9.01 µM)
- MIC (Fusarium (bulb)): 6 µg/mL (≈ 9.01 µM)
- MIC (Fusarium (tulip)): 6 µg/mL (≈ 9.01 µM)
- MIC (Fusarium solani): 9.3 µg/mL (≈ 14 µM)
- MIC (Fusarium): 3 µg/mL (≈ 4.51 µM)
- MIC (Penicillium islandicum): 3 µg/mL (≈ 4.51 µM)
- MIC (Penicillium italicum): 3 µg/mL (≈ 4.51 µM)
- MIC (Penicillium patalum): 3 µg/mL (≈ 4.51 µM)
- MIC (Penicillium rubrum): 3 µg/mL (≈ 4.51 µM)
- MIC (Penicillium veridicatum): 1.5 µg/mL (≈ 2.25 µM)
- MIC (Rhizoctonia solani): 2.3 µg/mL (≈ 3.45 µM)
- MIC (Trichophyton equinum; Trichophyton equinum 182-76, read-out: MIC values): 25 µg/mL (≈ 37.6 µM)
- MIC (Trichophyton equinum; [19]): 6 µg/mL (≈ 9.01 µM)
- MIC [2, 20]: 12.5 µg/mL (≈ 18.8 µM)
- MIC [2, 21]: 12.5 µg/mL (≈ 18.8 µM)
- MIC [2, 22]: 100 µg/mL (≈ 150 µM)
- MIC [2, 23]: 50 µg/mL (≈ 75.1 µM)
- MIC [2, 24]: 50 µg/mL (≈ 75.1 µM)
- MIC [2, 25]: 12.5 µg/mL (≈ 18.8 µM)
- MIC (Trichophyton quickeaneum): 12.5 µg/mL (≈ 18.8 µM)
- MIC (Trichophyton rubrum; [26]): 12.5 µg/mL (≈ 18.8 µM)
- MIC (Trichophyton rubrum; [27]): 25 µg/mL (≈ 37.6 µM)
- MIC (Trichophyton rubrum; [28]): 12.5 µg/mL (≈ 18.8 µM)
- MIC [3]: 25 µg/mL (≈ 37.6 µM)
- MIC [4]: 25 µg/mL (≈ 37.6 µM)
- MIC (Trichophyton tonsurans): 12.5 µg/mL (≈ 18.8 µM)
- MIC (Trichophyton verrucosum; [29]): 25 µg/mL (≈ 37.6 µM)
- MIC (Trichophyton verrucosum; Trichophyton verrucosum A 2922, read-out: MIC values): 25 µg/mL (≈ 37.6 µM)
- MIC (Trichophyton violoceum): 50 µg/mL (≈ 75.1 µM)
